Test results from patent US8211849B2, “Stable antimicrobial compositions including spore, bacteria, fungi and/or enzyme” (priority 2005, dated 2012).
Read-outs that look alike come from different tables or passages of the source.

Experiments:
[1] = tested on: bacteria; assay: Non-food contact sanitizing test, summary (organism not named); format: cell-based; settings: Table 13; composition including the named antimicrobial agent
Procedure: The composition produced greater than 3 log10 reduction of bacteria within a 5 minute contact time.
A summary of sanitizing efficacy in a non-food contact sanitizing test is shown below in Table 11 below. All testing was performed in 500 ppm synthetic hard water with a five minute exposure time. Microbiological testing was performed according to known methods, certain of which included EPA efficacy data requirements from DIS/TSS-10.
(§1) A summary of stability and sanitizing efficacy for these compositions including an amine antimicrobial agent is shown below in Table 13. This table also includes, for comparison, results for compositions including other types of antimicrobial agents.

[2] = Physical stability of compositions; format: physicochemical
Excerpt: as §1

[3] = tested on: lipase; assay: Enzyme stability testing (Lipolase activity); format: biochemical; settings: Table 13; composition including the named antimicrobial agent
Procedure: The pH of Formula 3 was lowered to 7. Formulas 4 and 5 maintained enzyme stability at 40 C for at least 30 days. Formula 3 maintained enzyme stability at 40 C for 30 days, but dropped thereafter. Enzyme stability testing was performed according to the manufacturers specifications (e.g., Novozymes LUNA #2000-10340-01 “Manual Procedure for Determination of Lipolase Activity in Enzyme Preparations and Detergents”. )

[4] = Table 13, composition including the named antimicrobial agent

| Compound | Antimicrobial Activity [1] | Physical Stability [2, 4] | Enzyme Stability [3] | Physical Stability [2] |
| --- | --- | --- | --- | --- |
| CCCCCCCCCC[N+](C)(C)CCCCCCCCCC.[Cl-] [Bardac 2250, didecyl dimethyl ammonium chloride] | 3 log reduction | – | – | – |
| O=C([O-])CNCO.[Na+] [Integra 44, Hydroxymethylglycinate] | none | yes | – | – |
| CCCCCCCCCCCCN(CCCN)CCCN [Lonzabac 12.30, bis (3-aminopropyl)dodecylamine] | 4.5 log reduction | yes | yes | – |
| Cc1cc(O)cc(C)c1Cl [PCMX, Chloroxylenol, reference compound] | – | yes | – | – |
| Oc1cccc(O)c1 [Resorcinol, 1,3-benzenediol, reference compound] | – | yes | – | – |
| Dodecyl/tetradecyloxypropyl-1,3-diaminopropane [DA 1618] | 4.8 log reduction | yes | yes | – |
| cocodiaminopropane [Duomeen CD] | 2.5 log reduction | yes | yes | – |
| isotridecyloxypropyl-1,3-diaminopropane [DA-17] | 4 log reduction | – | yes | yes |
| linear alkyloxypropyl amine [PA-19] | 4 log reduction | yes | yes | – |
| polyhexymethylene biguanide [Vantocil] | – | yes | – | – |
